Test results taken from patent US20020173491A1, “DAPD combination therapy with inosine monophosphate dehydrogenase inhibitor” (priority 2000, published 2002).
Like-named read-outs stand apart in the source and are kept apart here.

How the values were obtained:
xxLAI strain of HIV-1 [1] = experiment: microbe, parasite or virus in culture; type: cell-based; settings: for Fold difference in EC50, 0.1 μM MPA: control vs with 0.1 μM MPA; for Fold difference in EC50, 0.25 μM MPA: control vs with 0.25 μM MPA (fold decrease); for Fold difference in EC50, 5 μM RBV: control vs with 5 μM RBV; for Fold difference in EC50, 10 μM RBV: control vs with 10 μM RBV
Procedure: Triplicate samples of compound were tested. MT2 cells were infected with xxLAI at a multiplicity of infection (MOI) of 0.03 for 3 hours at 37° C. in 5% CO2. The infected cells were plated at 3.0×10^4/well into a 96 well plated containing drug dilutions and incubated for 5 days at 37° C. in CO2. […] This method has been modified into a susceptibility assay and has been used in a variety of in vitro antiviral tests and is readily adaptable to any system with a lytic virus (Weislow, O. S., et. al. 1989). Using the absorption values of the cell controls as 100% protection and no drug, virus infected cells as 0% protection, a dose response curve is generated by plotting % protection on the Y axis and drug concentration on the X axis. From this curve EC50 values were determined.
Assays were performed in the MT2 cell line as described above in the XXT sensitivity assay section.
MPA was tested for activity against the xxLAI strain of HIV-1 in the laboratory adapted cell line MT2. Dilutions of MPA were made in cell culture media in a 96 well plate; the highest concentration tested was 1 μM. Triplicate samples of compound were tested. MT2 cells were infected with xxLAI at a multiplicity of infection (MOI) of 0.03 for 3 hours at 37° C. in 5% CO2. The infected cells were plated at 3.0×10^4/well into a 96 well plated containing drug dilutions and incubated for 5 days at 37° C. in CO2. The antiviral activity of MPA was determined using the XTT assay described above. This method has been modified into a susceptibility assay and has been used in a variety of in vitro antiviral tests and is readily adaptable to any system with a lytic virus (Weislow, O. S., et. al. 1989). Using the absorption values of the cell controls as 100% protection and no drug, virus infected cells as 0% protection, a dose response curve is generated by plotting % protection on the Y axis and drug concentration on the X axis. From this curve EC50 values were determined.
The concentrations of MPA used were 1, 0.5, 0.25, 0.1, and 0.01 μM. Assays were performed in the MT2 cell line as described in section 3.1.

xxLAI strain of HIV-1 [2] = experiment: microbe, parasite or virus in culture; type: cell-based; settings: for effect of addition of 0.25 μM MPA on anti-HIV activity in PBMCs / effect of addition of 20 μM RBV on anti-HIV activity in PBMCs / Fold difference in EC50, 0.1 μM MPA / Fold difference in EC50, 0.25 μM MPA / Fold difference in EC50, 5 μM RBV / Fold difference in EC50, 10 μM RBV / Fold difference in EC50, 20 μM RBV: PBMC; for effect of addition of 0.25 μM MPA on anti-HIV activity in PBMCs / effect of addition of 20 μM RBV on anti-HIV activity in PBMCs: all the concentrations tested; for Fold difference in EC50, 0.1 μM MPA: control vs with 0.1 μM MPA; for Fold difference in EC50, 0.25 μM MPA: control vs with 0.25 μM MPA; for Fold difference in EC50, 5 μM RBV: control vs with 5 μM RBV; for Fold difference in EC50, 10 μM RBV: control vs with 10 μM RBV; for Fold difference in EC50, 20 μM RBV: control vs with 20 μM RBV
Procedure: In this assay, cell supernatants were incubated on microelisa wells coated with antibodies to HIV-1 p24 core antigen. Subsequently, anti-HIV-1 conjugate labeled with horseradish peroxidase was added. The labeled antibody bound to the solid phase antibody/antigen complexes previously formed. Addition of the tetramethylbenzidine substrate results in blue color formation. The color turned yellow when the reaction is stopped. The plates were then analyzed on a plate reader set at 490 nm. The absorbance is a direct measurement of the amount of HIV-1 produced in each well and a decrease in color indicates decreased viral production. […] PBMC were obtained from HIV-1 negative donors by banding on Ficoll gradients, stimulated with phytohemaglutinin (PHAP) for 48 hours prior to infection with HIV-1, and infected with virus for 4 hours at 37° C. at a MOI of 0.001. […] Plates were incubated for 3 days at 37° C. The concentration of virus in each well was determined using the NEN p24 assay. Using the absorption values of the cell controls as 100% protection and drug free, virus infected cells as 0% protection, a dose response curve is generated by plotting percent protection on the Y axis and drug concentration on the X axis. From this curve, EC50 values were determined.
Compound dilutions and assay conditions were as described above.
MPA was also tested for activity against the xxLAI strain of HIV-1 in PBMCs using a p24 based Elisa assay. In this assay, cell supernatants are incubated on microelisa wells coated with antibodies to HIV-1 p24 core antigen. Subsequently, anti-HIV-1 conjugate labeled with horse radish peroxidase is added. The labeled antibody binds to the solid phase antibody/antigen complexes previously formed. Addition of the tetramethylbenzidine substrate results in blue color formation. The color turns yellow when the reaction is stopped. The plates are then analyzed on a plate reader set at 490 nm. The absorbance is a direct measurement of the amount of HIV-1 produced in each well and a decrease in color indicates decreased viral production. Dilutions of MPA were made in cell culture media in a 96 well plate, the highest concentration of MPA tested was 1 μM. PBMC were obtained from HIV-1 negative donors by banding on Ficoll gradients, stimulated with phytohemaglutinin (PHAP) for 48 hours prior to infection with HIV-1, and infected with virus for 4 hours at 37° C. at a MOI of 0.001. Infected cells were seeded into 96 well plates containing 4-fold serial dilutions of MPA. Plates were incubated for 3 days at 37° C. The concentration of virus in each well was determined using the NEN p24 assay. Using the absorption values of the cell controls as 100% protection and drug free, virus infected cells as 0% protection, a dose response curve is generated by plotting % protection on the Y axis and drug concentration on the X axis. From this curve EC50 values were determined.
Compound dilutions and assay conditions were as described above. The concentrations of MPA used were 1, 0.5, 0.25, 0.1, and 0.01 μM.

[3] = Human immunodeficiency virus 1, MT2, read-out: Mean EC50, Control, MT2 cells, no MPA
[4] = Human immunodeficiency virus 1, MT2, read-out: Mean EC50, Control, MT2 cells, no RBV
[5] = read-out: Mean EC50, 0.25 μM MPA, MT2 cells, with 0.25 μM MPA
[6] = read-out: Mean EC50, 5 μM RBV, MT2 cells, with 5 μM RBV
[7] = read-out: Mean EC50, 10 μM RBV, MT2 cells, with 10 μM RBV
[8] = read-out: Mean EC50, 20 μM RBV, MT2 cells, with 20 μM RBV
[9] = Human immunodeficiency virus 1, PBMC, read-out: Mean EC50, Control, PMBCs, no MPA
[10] = Human immunodeficiency virus 1, PBMC, read-out: Mean EC50, Control, PMBCs, no RBV
[11] = read-out: Mean EC50, 0.01 μM MPA, PMBCs, with 0.01 μM MPA
[12] = read-out: Mean EC50, 0.1 μM MPA, PMBCs, with 0.1 μM MPA
[13] = read-out: Mean EC50, 0.25 μM MPA, PMBCs, with 0.25 μM MPA
[14] = read-out: Mean EC50, 1 μM RBV, PMBCs, with 1 μM RBV
[15] = read-out: Mean EC50, 5 μM RBV, PMBCs, with 5 μM RBV
[16] = read-out: Mean EC50, 10 μM RBV, PMBCs, with 10 μM RBV
[17] = read-out: Mean EC50, 20 μM RBV, PMBCs, with 20 μM RBV
[18] = read-out: Mean EC50, 0.01 μM MPA, MT2 cells, with 0.01 μM MPA
[19] = read-out: Mean EC50, 0.1 μM MPA, MT2 cells, with 0.1 μM MPA

SMILES | EC50 (xxLAI strain of HIV-1 [1]; [3]) | EC50 (xxLAI strain of HIV-1 [1]; [4]) | Fold difference in EC50, 0.1 μM MPA (xxLAI strain of HIV-1 [1]; MT2 cells) | Fold difference in EC50, 0.25 μM MPA (xxLAI strain of HIV-1 [1]; MT2 cells) | Fold difference in EC50, 5 μM RBV (xxLAI strain of HIV-1 [1]; MT2 cells) | Fold difference in EC50, 10 μM RBV (xxLAI strain of HIV-1 [1]; MT2 cells) | EC50 (xxLAI strain of HIV-1 [1]; [5]) | EC50 (xxLAI strain of HIV-1 [1]; [6]) | EC50 (xxLAI strain of HIV-1 [1]; [7]) | EC50 (xxLAI strain of HIV-1 [1]; [8]) | EC50 (xxLAI strain of HIV-1 [2]; [9]) | EC50 (xxLAI strain of HIV-1 [2]; [10]) | effect of addition of 0.25 μM MPA on anti-HIV activity in PBMCs (xxLAI strain of HIV-1 [2]; with 0.25 μM MPA) | effect of addition of 20 μM RBV on anti-HIV activity in PBMCs (xxLAI strain of HIV-1 [2]; with 20 μM RBV) | Fold difference in EC50, 0.1 μM MPA (xxLAI strain of HIV-1 [2]) | Fold difference in EC50, 0.25 μM MPA (xxLAI strain of HIV-1 [2]) | Fold difference in EC50, 5 μM RBV (xxLAI strain of HIV-1 [2]) | Fold difference in EC50, 10 μM RBV (xxLAI strain of HIV-1 [2]) | EC50 (xxLAI strain of HIV-1 [2]; [11]) | EC50 (xxLAI strain of HIV-1 [2]; [12]) | other results
Nc1nc(NC2CC2)c2ncn([C@H]3C=C[C@@H](CO)C3)c2n1 [Abacavir] | 2400 nM | 4700 nM | 1 fold | 1.7 fold | 0.68 fold | 0.73 fold | 1400 nM | 6900 nM | 6400 nM | 5700 nM | 1200 nM | 540 nM | completely inhibited HIV replication | completely inhibited HIV replication | 3.2 fold | >50 fold | 4.9 fold | 18 fold | 1100 nM | 380 nM | fold difference in the apparent EC50 on addition of RBV (xxLAI strain of HIV-1 [1]; MT2 cells, addition of RBV): less than 2 fold; Fold difference in EC50, 20 μM RBV (xxLAI strain of HIV-1 [2]): >18 fold; EC50 (xxLAI strain of HIV-1 [2]; [13]): < 0.5 nM; EC50 (xxLAI strain of HIV-1 [2]; [14]): 200 nM; EC50 (xxLAI strain of HIV-1 [2]; [15]): 110 nM; EC50 (xxLAI strain of HIV-1 [2]; [16]): 30 nM; EC50 (xxLAI strain of HIV-1 [2]; [17]): < 30 nM
Nc1nc(=O)n([C@@H]2CS[C@H](CO)O2)cc1F [FTC] | – | – | 1 fold | – | – | – | – | – | – | – | – | – | little effect | – | 1.2 fold | 1.8 fold | – | – | 8 nM | 9.3 nM | EC50 (xxLAI strain of HIV-1 [1]; MT2 cells, no MPA, read-out: Mean EC50, Control): 600 nM; EC50 (xxLAI strain of HIV-1 [1]; MT2 cells, with 0.25 μM MPA, read-out: Mean EC50, 0.25 μM MPA): 400 nM; EC50 (xxLAI strain of HIV-1 [1]; [18]): 620 nM; EC50 (xxLAI strain of HIV-1 [1]; [19]): 620 nM; EC50 (xxLAI strain of HIV-1 [2]; PMBCs, no MPA, read-out: Mean EC50, Control): 11 nM; EC50 (xxLAI strain of HIV-1 [2]; PMBCs, with 0.25 μM MPA, read-out: Mean EC50, 0.25 μM MPA): 6 nM
Cc1cn([C@H]2C[C@H](N=[N+]=[N-])[C@@H](CO)O2)c(=O)[nH]c1=O [AZT, 3′-azido-3′-deoxy-thymidine] | 420 nM | 1700 nM | 0.5 fold | 0.44 fold | 0.37 fold | 0.29 fold | 950 nM | 4600 nM | 5900 nM | > 10000 nM | 3.1 nM | 3 nM | little effect | little effect | 1.5 fold | 1.8 fold | 1.2 fold | 1.4 fold | 2.6 nM | 2.1 nM | fold increase in the apparent EC50 (xxLAI strain of HIV-1 [1]; MT2 cells, addition of 0.25 μM MPA): 2.3 fold; Fold difference in EC50, 1 μM RBV (xxLAI strain of HIV-1 [1]; MT2 cells, control vs with 1 μM RBV): 0.59 fold; Fold difference in EC50, 20 μM RBV (xxLAI strain of HIV-1 [1]; MT2 cells, control vs with 20 μM RBV (fold decrease)): <0.17 fold; EC50 (xxLAI strain of HIV-1 [1]; [18]): 300 nM; EC50 (xxLAI strain of HIV-1 [1]; [19]): 800 nM; EC50 (xxLAI strain of HIV-1 [1]; read-out: Mean EC50, 1 μM RBV, MT2 cells, with 1 μM RBV): 2900 nM; Fold difference in EC50, 20 μM RBV (xxLAI strain of HIV-1 [2]): 1.4 fold; EC50 (xxLAI strain of HIV-1 [2]; [13]): 1.7 nM; EC50 (xxLAI strain of HIV-1 [2]; [14]): 3.5 nM; EC50 (xxLAI strain of HIV-1 [2]; [15]): 2.6 nM; EC50 (xxLAI strain of HIV-1 [2]; [16]): 2.2 nM; EC50 (xxLAI strain of HIV-1 [2]; [17]): 2.1 nM
